For 37 molecules, EC50 results are on record in BindingDB's records for doi:10.7270/Q25719FH (Srmlsc, 2007).

Molecules are shown by their SMILES.

For this assay, the target named is Multidrug resistance-associated protein 1 (Homo sapiens, UniProt P33527). The assay is described as follows: doxorubicin EC50 increase in MRP-1 cells, dose response, cell-based, doxorubicin EC50 shift (AID 844).
Sequence of Multidrug resistance-associated protein 1 (P33527 whole entry): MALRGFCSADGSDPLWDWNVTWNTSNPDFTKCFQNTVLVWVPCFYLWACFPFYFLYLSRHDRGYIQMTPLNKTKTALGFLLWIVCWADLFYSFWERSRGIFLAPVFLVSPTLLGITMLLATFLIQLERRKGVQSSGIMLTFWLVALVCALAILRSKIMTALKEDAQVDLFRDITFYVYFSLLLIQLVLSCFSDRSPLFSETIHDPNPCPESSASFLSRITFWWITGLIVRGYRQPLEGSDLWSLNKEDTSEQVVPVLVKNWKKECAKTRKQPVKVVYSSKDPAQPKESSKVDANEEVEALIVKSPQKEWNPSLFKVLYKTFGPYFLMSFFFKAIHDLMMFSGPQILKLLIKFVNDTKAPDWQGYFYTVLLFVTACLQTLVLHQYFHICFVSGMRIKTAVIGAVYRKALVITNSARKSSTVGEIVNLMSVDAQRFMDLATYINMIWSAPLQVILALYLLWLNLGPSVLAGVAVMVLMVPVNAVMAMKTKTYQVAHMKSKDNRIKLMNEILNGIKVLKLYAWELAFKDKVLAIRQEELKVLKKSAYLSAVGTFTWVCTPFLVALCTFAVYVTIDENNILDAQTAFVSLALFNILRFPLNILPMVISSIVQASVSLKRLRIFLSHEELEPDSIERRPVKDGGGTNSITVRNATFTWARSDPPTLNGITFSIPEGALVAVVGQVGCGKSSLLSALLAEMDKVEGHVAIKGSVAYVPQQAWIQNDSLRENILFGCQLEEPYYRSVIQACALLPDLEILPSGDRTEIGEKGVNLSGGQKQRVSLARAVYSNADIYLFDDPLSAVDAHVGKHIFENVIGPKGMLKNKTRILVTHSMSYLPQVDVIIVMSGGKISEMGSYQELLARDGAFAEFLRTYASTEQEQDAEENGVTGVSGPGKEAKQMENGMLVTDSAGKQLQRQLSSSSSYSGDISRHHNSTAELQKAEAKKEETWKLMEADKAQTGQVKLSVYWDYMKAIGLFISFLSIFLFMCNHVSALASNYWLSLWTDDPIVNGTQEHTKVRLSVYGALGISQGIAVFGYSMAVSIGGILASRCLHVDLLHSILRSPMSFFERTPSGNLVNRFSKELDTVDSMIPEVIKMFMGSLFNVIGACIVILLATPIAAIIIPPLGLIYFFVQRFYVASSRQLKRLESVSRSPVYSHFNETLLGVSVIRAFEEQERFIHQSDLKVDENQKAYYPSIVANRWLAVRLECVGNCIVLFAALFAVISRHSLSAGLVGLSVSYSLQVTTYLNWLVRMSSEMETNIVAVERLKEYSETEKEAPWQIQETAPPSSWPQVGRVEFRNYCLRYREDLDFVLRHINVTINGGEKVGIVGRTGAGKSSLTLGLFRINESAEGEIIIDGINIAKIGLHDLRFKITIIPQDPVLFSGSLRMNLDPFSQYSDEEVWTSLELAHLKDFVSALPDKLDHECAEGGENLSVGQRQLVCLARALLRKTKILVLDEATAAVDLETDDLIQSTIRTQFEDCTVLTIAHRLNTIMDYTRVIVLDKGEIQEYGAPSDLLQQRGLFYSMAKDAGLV
What is called EC50 is the concentration at which the effect is half-maximal. As for `O=C1Nc2ccccc2[C@@]12N[C@@H](Cc1ccc(O)cc1)c1c2c(O)n(-c2ccc(F)cc2)c1O` [(1S,3R,3aR,6aS)-5-(4-fluorophenyl)-1-(4-hydroxybenzyl)spiro[1,2,3a,6a-tetrahydropyrrolo[3,4-c]pyrrole-3,3'-indoline]-2',4,6-trione], the EC50 turned out to be 7.87 µM.
On to `O=C(O)c1ccc(N=NCc2ccc(F)c(F)c2)cc1` [4-[2-[(3,4-difluorophenyl)methylidene]hydrazinyl]benzoic acid;sulfuric acid], for which the EC50 came out at 7.07 µM.
With `Oc1nc(Nc2ccc(Cl)cc2)sc1Cc1cc(Cl)ccc1Cl` [2-(4-chloroanilino)-5-(2,5-dichlorobenzyl)-2-thiazolin-4-one], the EC50 worked out at 5.86 µM.
Regarding `C=CCc1c(C)nc(-c2ccccc2)nc1N=NC(C)c1ccc(N)cc1` (configuration not stated) [(5-allyl-6-methyl-2-phenyl-pyrimidin-4-yl)-[1-(4-aminophenyl)ethylideneamino]amine], the EC50 was found to be 6.99 µM.
Consider `COc1cccc(C2C(C(=O)Nc3nc4ccccc4s3)=C(C)N=C3CC(C)(C)CC(=O)C32)c1OC` (configuration not stated) [N-(1,3-benzothiazol-2-yl)-4-(2,3-dimethoxyphenyl)-2,7,7-trimethyl-5-oxo-1,4,6,8-tetrahydroquinoline-3-carboxamide], for which the EC50 came out at 1.6 µM.
On to `O=C(CC=NNC(=O)c1ccccc1)c1ccc(Br)cc1` [MLS000532545], for which the EC50 is 2.86 µM.
As to `Cc1ccccc1NC(=O)Cc1sc(=O)n(-c2ccccc2)c1O` [2-(2,4-Dioxo-3-phenyl-thiazolidin-5-yl)-N-o-tolyl-acetamide], the EC50 turned out to be 7.29 µM.
Next, `COc1ccc(CN=Nc2cc(C)nc(-n3nc(C)cc3C)n2)cc1` [SMR000212741]: 0.656 µM; `Cc1ccc(-n2[nH]c(C)c(C(c3ccccc3O)c3c(C)[nH]n(-c4ccc(C)cc4C)c3=O)c2=O)c(C)c1`: 3.81 µM.
Turning to `Cc1ccc(C)c(C(=O)C2C(=O)C(=O)N(CCCn3ccnc3)C2c2ccncc2)c1` (configuration not stated) [(4E)-4-[(2,5-dimethylphenyl)-hydroxy-methylene]-1-(3-imidazol-1-ylpropyl)-5-(4-pyridyl)pyrrolidine-2,3-quinone], the EC50 came out at 6.31 µM.
With `CCOC(=O)C1C(C)=Nc2ncnn2C1c1cccnc1` (configuration not stated), the concentration for a half-maximal effect (EC50) came to 4.5 µM.
Next, `COc1ccc(-n2c(O)cc(N3CCC(O)(c4cccc(C(F)(F)F)c4)CC3)c2O)cc1` [1-(4-methoxyphenyl)-3-[4-oxidanyl-4-[3-(trifluoromethyl)phenyl]piperidin-1-yl]pyrrolidine-2,5-dione]: 4.82 µM; `COc1ccc(CN2C(=O)C(=CNc3ccc(OC)cc3)c3ccccc3C2=O)cc1` [SMR000259567]: 7.24 µM.
Regarding `COc1ccc(CN=Nc2cc(OC)ncn2)cc1` [6-methoxy-N-[(4-methoxyphenyl)methylideneamino]-4-pyrimidinamine], the EC50 worked out at 3.1 µM.
On to `Oc1csc(=S)n1N=C1CCCCCC1` [SMR000212426], for which the EC50 was determined as 4.99 µM.
As to `COc1ccc(Cc2nnc(N=NCc3ccc(O)cc3O)[nH]c2=O)cc1OC`, the EC50 was 0.836 µM.
On to `Cc1cc(N=NCc2ccccc2Cl)nc(NCc2ccccc2)n1` [2-N-benzyl-4-N-[(2-chlorophenyl)methylideneamino]-6-methylpyrimidine-2,4-diamine], for which the half-maximal effective concentration (EC50) worked out at 1.08 µM.
As for `CC1=CC([N+](=O)[O-])=CC(C=NNC(=O)c2cc(C)n[nH]2)C1=O` (configuration not stated) [5-methyl-N'-[(E)-(5-methyl-3-nitro-6-oxo-1-cyclohexa-2,4-dienylidene)methyl]-1H-pyrazole-3-carbohydrazide], the EC50 amounted to 2.87 µM.
On to `Oc1cc(N2CCCN(c3cc(O)n(-c4ccc(F)cc4)c3O)CC2)c(O)n1-c1ccc(F)cc1` [1-(4-fluorophenyl)-3-[4-[1-(4-fluorophenyl)-2,5-bis(oxidanylidene)pyrrolidin-3-yl]-1,4-diazepan-1-yl]pyrrolidine-2,5-dione], for which the EC50 was found to be 6.34 µM.
With `N#Cc1ccc(-n2c(O)c3[nH][nH]c(C(=O)c4ccc5ccccc5n4)c-3c2=O)cc1` [4-[(3aS,6aS)-4,6-dioxo-3-[oxo(2-quinolinyl)methyl]-3a,6a-dihydro-1H-pyrrolo[3,4-c]pyrazol-5-yl]benzonitrile], the EC50 is 7 µM.
On to `CCc1ccc(C(C)N=Nc2cc(Cl)nc(C)n2)cc1` (configuration not stated) [(6-chloro-2-methyl-pyrimidin-4-yl)-[1-(4-ethylphenyl)ethylideneamino]amine], for which the EC50 came to 3.75 µM.
`COc1cccc(C=Nn2c(O)csc2=S)c1O` [3-[[(E)-(5-methoxy-6-oxidanylidene-cyclohexa-2,4-dien-1-ylidene)methyl]amino]-2-sulfanylidene-1,3-thiazolidin-4-one]: the EC50 is 7.08 µM.
With `COc1ccccc1C1C(C(=O)c2sc(C)nc2C)C(=O)C(=O)N1CCN1CCOCC1` (configuration not stated) [3-(2,4-dimethyl-1,3-thiazole-5-carbonyl)-4-hydroxy-2-(2-methoxyphenyl)-1-(2-morpholin-4-ylethyl)-2H-pyrrol-5-one], the EC50 amounted to 3.81 µM.
On to `O=C1CC(=O)CC(c2ccc(Cl)cc2)C1` [5-(4-chlorophenyl)-3-hydroxy-1-cyclohex-2-enone], for which the EC50 worked out at 5.6 µM.
Take `CCCCCCN1C(=O)C(=Cc2c[nH]nc2-c2ccccc2)SC1=S` [(5Z)-3-hexyl-5-[(5-phenyl-1H-pyrazol-4-yl)methylidene]-2-sulfanylidene-1,3-thiazolidin-4-one]: the EC50 is 4.16 µM.
For `C=CCN(C(=O)Nc1ccc(Cl)cc1)c1cc(O)n(-c2ccc(OC)cc2)c1O` [1-allyl-3-(4-chlorophenyl)-1-[2,5-diketo-1-(4-methoxyphenyl)pyrrolidin-3-yl]urea], the EC50 was 4.85 µM.
For `O=C(CCCCl)Nc1cc(=O)n(-c2ccccc2)[nH]1` [4-Chloro-N-(5-oxo-1-phenyl-4,5-dihydro-1H-pyrazol-3-yl)-butyramide], the EC50 is 8.43 µM.
Take `O=[N+]([O-])c1ccc(N=NCc2ccccc2)c(F)c1` [2-fluoranyl-4-nitro-N-[(phenylmethylidene)amino]aniline]: the EC50 was 3.44 µM.
Regarding `COc1ccc(-n2c(O)c(CC(=O)Nc3ccc(F)cc3)n(CCc3cccs3)c2=O)cc1` [2-[2,5-diketo-1-(4-methoxyphenyl)-3-[2-(2-thienyl)ethyl]imidazolidin-4-yl]-N-(4-fluorophenyl)acetamide], the EC50 worked out at 4.38 µM.
As for `CC1CCN(S(=O)(=O)c2ccc(Br)s2)CC1` [1-(5-bromanylthiophen-2-yl)sulfonyl-4-methyl-piperidine], the EC50 came to 3.52 µM.
For `N#CC(C#N)N=Nc1ccc(S(=O)(=O)N2CCCC2)cc1` [2-[(4-pyrrolidin-1-ylsulfonylphenyl)hydrazinylidene]propanedinitrile], the EC50 turned out to be 5.88 µM.
The value for `O=CC(=NNc1ccccc1)C(=O)c1ccncc1` [3-keto-2-(phenylhydrazono)-3-(4-pyridyl)propionaldehyde] was 7.54 µM; that for `COc1ccc(-n2c(O)cc(N3CCC(n4c(=O)[nH]c5ccccc54)CC3)c2O)cc1` was 5.64 µM.
Regarding `O=C1C=CC([N+](=O)[O-])=CC1/C=N/n1cnc2ccccc21` (configuration not stated) [2-[(E)-Benzoimidazol-1-yliminomethyl]-4-nitro-phenol], the EC50 was found to be 3.61 µM.
Next, `CCOc1ccc2c(c1)C(N=O)C(=O)N2C` (configuration not stated) [(3E)-5-ethoxy-1-methyl-1H-indole-2,3-dione 3-oxime]: 3.14 µM.
Turning to `COc1cc(C2NC(=O)N=C(C)C2C(=O)OCc2ccc(C)cc2)cc(OC)c1O` (configuration not stated) [(4-methylphenyl)methyl 4-(3,5-dimethoxy-4-oxidanyl-phenyl)-6-methyl-2-oxidanylidene-3,4-dihydro-1H-pyrimidine-5-carboxylate], the EC50 was 3.65 µM.
As to `Oc1cc(N2CCC(O)(c3ccc(Br)cc3)CC2)c(O)n1-c1ccc(Cl)cc1` [3-[4-(4-bromophenyl)-4-hydroxy-1-piperidinyl]-1-(4-chlorophenyl)-2,5-pyrrolidinedione], the EC50 came to 7.39 µM.
